Data taken from publication PMC12693633, “Synthesis and Evaluation of Radiogallium-Labeled Peptide Probes for In Vivo Imaging of Legumain Activity” (Molecules, 2025).
Read-outs that look alike come from different tables or passages of the source. Square brackets hold non-standard residues; d marks the D form. Peptide text beside a SMILES is read from it. * marks the point of attachment. NOTA(2S-Bn(4-NHCS)) = O=C(O)CN1CCN(CC(=O)O)C[C@H](Cc2ccc(NC(=S)*)cc2)N(CC(=O)O)CC1; Cit = NC(=O)NCCC[C@H](N)C(=O)O; Ahx = NCCCCCC(=O)O

Assay: In vivo biodistribution in HCT116 tumor-bearing mice
Conditions: female, mouse, iv, total radioactivity, mean (SD), n = 5; for tissue to tissue ratio at 1 h: BALB/c nu/nu, 7.4 kBq, HCT116 tumor-bearing mice, 1 h after i.v. injection; for tissue uptake at 1 h / tissue uptake dose at 1 h: 7.4 kBq i.v. (tail vein), 1 h after injection, gamma counter; for tissue uptake dose at 1 h: stomach (whole organ), whole organ
Procedure: Animal experiments were conducted in accordance with our institutional guidelines and were approved by the Nagasaki University Animal Care Committee and the Kanazawa University Animal Care Committee. The animal experimental protocols were approved by the Committee on Animal Experimentation of Nagasaki University and Kanazawa University. BALB/c nu/nu mice (female; 4 weeks old) were supplied by Japan SLC (Shizuoka, Japan). The mice were maintained in a room at a constant ambient temperature and a 12/12 h light/dark cycle and were given free access to food and water. Mice were subcutaneously injected on their right shoulders with approximately 1.0 × 10^7 HCT116 cells. The tumors were allowed to reach 300–500 mm^3 (1–2 weeks after inoculation) before biodistribution studies were performed.
Each [^67Ga]Ga-NOTA-peptide (7.4 kBq) was administered to mice via tail vein injection in 100 μL of saline. The mice were euthanized 1 h after injection, and their organs were harvested. The tissues were weighed and the radioactivity in each sample was measured using an automated gamma counter (n = 5). The results are expressed as the percent injected dose per gram of tissue (%ID/g) or as %ID.

[1] = tumor/blood, read-out: Tumor/Blood ratio
[2] = tumor/muscle, read-out: Tumor/Muscle ratio
[3] = blood, HCT116 tumor-bearing BALB/c nu/nu mice, read-out: Biodistribution, Blood
[4] = brain, HCT116 tumor-bearing BALB/c nu/nu mice, read-out: Biodistribution, Brain
[5] = heart, HCT116 tumor-bearing BALB/c nu/nu mice, read-out: Biodistribution, Heart
[6] = intestine, HCT116 tumor-bearing BALB/c nu/nu mice, read-out: Biodistribution, Intestine
[7] = HCT116 tumor, BALB/c nu/nu mice, read-out: Biodistribution, Tumor
[8] = kidney, HCT116 tumor-bearing BALB/c nu/nu mice, read-out: Biodistribution, Kidney
[9] = liver, HCT116 tumor-bearing BALB/c nu/nu mice, read-out: Biodistribution, Liver
[10] = lung, HCT116 tumor-bearing BALB/c nu/nu mice, read-out: Biodistribution, Lung
[11] = muscle, HCT116 tumor-bearing BALB/c nu/nu mice, read-out: Biodistribution, Muscle
[12] = pancreas, HCT116 tumor-bearing BALB/c nu/nu mice, read-out: Biodistribution, Pancreas
[13] = spleen, HCT116 tumor-bearing BALB/c nu/nu mice, read-out: Biodistribution, Spleen
[14] = HCT116 tumor-bearing BALB/c nu/nu mice

tissue to tissue ratio at 1 h [1] | tissue to tissue ratio at 1 h [2] | tissue uptake at 1 h [3] [%ID/g] | tissue uptake at 1 h [4] [%ID/g] | tissue uptake at 1 h [5] [%ID/g] | tissue uptake at 1 h [6] [%ID/g] | tissue uptake at 1 h [7] [%ID/g] | tissue uptake at 1 h [8] [%ID/g] | tissue uptake at 1 h [9] [%ID/g] | tissue uptake at 1 h [10] [%ID/g] | tissue uptake at 1 h [11] [%ID/g] | tissue uptake at 1 h [12] [%ID/g] | tissue uptake at 1 h [13] [%ID/g] | tissue uptake dose at 1 h [14] [%ID] | Structure (SMILES)
8.29 ± 3.41 | 3.54 | 0.28 | 0.03 | 0.53 | 0.44 | 1.83 ± 0.32 | 129 | 19.1 | 0.93 | 0.54 | 0.31 | 3.94 | 0.18 | CC(=O)NCCCCCC(=O)N[C@H](CCC(=O)O)C(=O)N[C@H](CCC(=O)O)C(=O)N[C@H](CCC(=O)O)C(=O)N[C@H](CCC(=O)O)C(=O)N[C@H](CCC(=O)O)C(=O)N[C@H](CCC(=O)O)C(=O)N[C@H](CCC(=O)O)C(=O)N[C@H](CCC(=O)O)C(=O)N[C@H](CCC(=O)O)C(=O)NCCCCCC(=O)N1CCC[C@H]1C(=O)N[C@@H](C)C(=O)N[C@@H](C)C(=O)N[C@@H](CC(N)=O)C(=O)N[C@H](C(=O)NCC(=O)N[C@H](CCCNC(=N)N)C(=O)N[C@H](CCCNC(=N)N)C(=O)N[C@H](CCCNC(=N)N)C(=O)N[C@H](CCCNC(=N)N)C(=O)N[C@H](CCCNC(=N)N)C(=O)N[C@H](CCCNC(=N)N)C(=O)N[C@H](CCCNC(=N)N)C(=O)N[C@H](CCCNC(=N)N)C(=O)N[C@H](CCCNC(=N)N)C(=O)NCCCCCC(=O)N[C@H](CCCCNC(=S)Nc1ccc(C[C@H]2CN(CC(=O)O)CCN(CC(=O)O)CCN2CC(=O)O)cc1)C(N)=O)C(C)C [[^67Ga]Ga-NOTA-LCP-1, metal not drawn] (Ac-[Ahx][dE][dE][dE][dE][dE][dE][dE][dE][dE][Ahx]PAANVG[dR][dR][dR][dR][dR][dR][dR][dR][dR][Ahx][dK](NOTA(2S-Bn(4-NHCS)))-NH2)
2.54 | 2.7 | 0.41 | 0.04 | 0.56 | 0.54 | 0.95 | 73.3 | 20.8 | 1.36 | 0.43 | 0.46 | 5.38 | 0.12 | CC(=O)NCCCCCC(=O)N[C@H](CCC(=O)O)C(=O)N[C@H](CCC(=O)O)C(=O)N[C@H](CCC(=O)O)C(=O)N[C@H](CCC(=O)O)C(=O)NCCCCCC(=O)N1CCC[C@H]1C(=O)N[C@@H](C)C(=O)N[C@@H](C)C(=O)N[C@@H](CCCNC(N)=O)C(=O)N[C@H](C(=O)NCC(=O)N[C@H](CCCNC(=N)N)C(=O)N[C@H](CCCNC(=N)N)C(=O)N[C@H](CCCNC(=N)N)C(=O)N[C@H](CCCNC(=N)N)C(=O)N[C@H](CCCNC(=N)N)C(=O)NCCCCCC(=O)N[C@H](CCCCNC(=S)Nc1ccc(C[C@H]2CN(CC(=O)O)CCN(CC(=O)O)CCN2CC(=O)O)cc1)C(N)=O)C(C)C [[^67Ga]Ga-NOTA-NCP-3, metal not drawn] (Ac-[Ahx][dE][dE][dE][dE][Ahx]PAA[Cit]VG[dR][dR][dR][dR][dR][Ahx][dK](NOTA(2S-Bn(4-NHCS)))-NH2)
2.2 ± 0.69 | 2.47 | 0.46 | 0.04 | 0.44 | 0.63 | 0.97 ± 0.25 | 96.6 | 17.2 | 1.58 | 0.4 | 0.38 | 4.37 | 0.19 | CC(=O)NCCCCCC(=O)N[C@H](CCC(=O)O)C(=O)N[C@H](CCC(=O)O)C(=O)N[C@H](CCC(=O)O)C(=O)N[C@H](CCC(=O)O)C(=O)NCCCCCC(=O)N1CCC[C@H]1C(=O)N[C@@H](C)C(=O)N[C@@H](C)C(=O)N[C@@H](CC(N)=O)C(=O)N[C@H](C(=O)NCC(=O)N[C@H](CCCNC(=N)N)C(=O)N[C@H](CCCNC(=N)N)C(=O)N[C@H](CCCNC(=N)N)C(=O)N[C@H](CCCNC(=N)N)C(=O)N[C@H](CCCNC(=N)N)C(=O)NCCCCCC(=O)N[C@H](CCCCNC(=S)Nc1ccc(C[C@H]2CN(CC(=O)O)CCN(CC(=O)O)CCN2CC(=O)O)cc1)C(N)=O)C(C)C [[^67Ga]Ga-NOTA-LCP-3, metal not drawn] (Ac-[Ahx][dE][dE][dE][dE][Ahx]PAANVG[dR][dR][dR][dR][dR][Ahx][dK](NOTA(2S-Bn(4-NHCS)))-NH2)
4.39 ± 2.07 | 1.91 | 0.45 | 0.04 | 0.43 | 0.53 | 1.8 ± 0.51 | 122 | 17.4 | 1.08 | 0.96 | 0.64 | 3.15 | 0.22 | CC(=O)NCCCCCC(=O)N[C@H](CCC(=O)O)C(=O)N[C@H](CCC(=O)O)C(=O)N[C@H](CCC(=O)O)C(=O)N[C@H](CCC(=O)O)C(=O)N[C@H](CCC(=O)O)C(=O)N[C@H](CCC(=O)O)C(=O)N[C@H](CCC(=O)O)C(=O)N[C@H](CCC(=O)O)C(=O)N[C@H](CCC(=O)O)C(=O)NCCCCCC(=O)N1CCC[C@H]1C(=O)N[C@@H](C)C(=O)N[C@@H](C)C(=O)N[C@@H](CCCNC(N)=O)C(=O)N[C@H](C(=O)NCC(=O)N[C@H](CCCNC(=N)N)C(=O)N[C@H](CCCNC(=N)N)C(=O)N[C@H](CCCNC(=N)N)C(=O)N[C@H](CCCNC(=N)N)C(=O)N[C@H](CCCNC(=N)N)C(=O)N[C@H](CCCNC(=N)N)C(=O)N[C@H](CCCNC(=N)N)C(=O)N[C@H](CCCNC(=N)N)C(=O)N[C@H](CCCNC(=N)N)C(=O)NCCCCCC(=O)N[C@H](CCCCNC(=S)Nc1ccc(C[C@H]2CN(CC(=O)O)CCN(CC(=O)O)CCN2CC(=O)O)cc1)C(N)=O)C(C)C [[^67Ga]Ga-NOTA-NCP-1, metal not drawn] (Ac-[Ahx][dE][dE][dE][dE][dE][dE][dE][dE][dE][Ahx]PAA[Cit]VG[dR][dR][dR][dR][dR][dR][dR][dR][dR][Ahx][dK](NOTA(2S-Bn(4-NHCS)))-NH2)
